Laboratory results as given in ChEMBL document CHEMBL2046389, “Contribution of indazolinone tautomers to kinase activity” (Bioorg Med Chem Lett, 2012).

biological target: Vascular endothelial growth factor receptor 2 (Homo sapiens, UniProt P35968); assay: Inhibition of KDR in presence of 1 mM ATP
Sequence (P35968 whole entry): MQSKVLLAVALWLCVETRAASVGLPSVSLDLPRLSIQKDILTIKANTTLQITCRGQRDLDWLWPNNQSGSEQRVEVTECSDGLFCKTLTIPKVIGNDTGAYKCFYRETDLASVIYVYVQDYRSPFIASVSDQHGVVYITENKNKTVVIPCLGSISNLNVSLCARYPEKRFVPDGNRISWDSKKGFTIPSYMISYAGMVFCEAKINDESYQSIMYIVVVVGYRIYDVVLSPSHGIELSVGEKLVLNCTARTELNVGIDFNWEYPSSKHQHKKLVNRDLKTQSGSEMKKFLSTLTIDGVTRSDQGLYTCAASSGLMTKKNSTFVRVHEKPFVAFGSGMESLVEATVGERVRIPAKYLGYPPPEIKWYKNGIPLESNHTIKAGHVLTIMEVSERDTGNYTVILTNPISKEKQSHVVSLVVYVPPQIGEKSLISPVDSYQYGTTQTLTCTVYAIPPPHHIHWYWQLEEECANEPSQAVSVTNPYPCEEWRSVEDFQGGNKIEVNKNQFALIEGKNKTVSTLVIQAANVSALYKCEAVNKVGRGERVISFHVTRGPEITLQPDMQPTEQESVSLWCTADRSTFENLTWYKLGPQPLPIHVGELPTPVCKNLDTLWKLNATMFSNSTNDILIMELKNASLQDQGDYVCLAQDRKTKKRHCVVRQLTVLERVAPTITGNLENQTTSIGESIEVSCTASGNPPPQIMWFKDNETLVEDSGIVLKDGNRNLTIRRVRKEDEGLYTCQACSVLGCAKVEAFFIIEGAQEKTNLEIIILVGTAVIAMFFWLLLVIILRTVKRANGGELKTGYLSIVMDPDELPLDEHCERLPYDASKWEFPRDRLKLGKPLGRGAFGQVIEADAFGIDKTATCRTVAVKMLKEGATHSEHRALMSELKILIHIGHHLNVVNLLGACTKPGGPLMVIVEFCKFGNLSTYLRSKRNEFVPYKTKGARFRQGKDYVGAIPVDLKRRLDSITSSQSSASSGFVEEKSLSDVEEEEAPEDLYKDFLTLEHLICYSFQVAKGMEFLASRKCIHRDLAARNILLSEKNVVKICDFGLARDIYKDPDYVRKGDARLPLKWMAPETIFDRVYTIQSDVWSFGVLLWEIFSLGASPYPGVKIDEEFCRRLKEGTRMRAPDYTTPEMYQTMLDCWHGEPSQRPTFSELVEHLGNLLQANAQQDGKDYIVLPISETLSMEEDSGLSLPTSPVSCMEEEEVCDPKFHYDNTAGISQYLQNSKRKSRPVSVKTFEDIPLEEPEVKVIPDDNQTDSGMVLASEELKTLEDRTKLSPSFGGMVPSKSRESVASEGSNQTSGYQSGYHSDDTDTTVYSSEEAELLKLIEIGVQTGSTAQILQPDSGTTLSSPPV

IC50 [µM] | Compound
> 1000 | Cc1cccc(NC(=O)Nc2ccc(-c3cccc4c3C(=O)NC4)cc2)c1
0.04 | O=C(Nc1ccc(-c2cccc3c(=O)[nH][nH]c23)cc1)Nc1cccc(C(F)(F)F)c1
0.01 | O=C(Nc1ccc(-c2cccc3[nH][nH]c(=O)c23)cc1)Nc1cccc(C(F)(F)F)c1
> 1000 | Cc1cccc(NC(=O)Nc2ccc(-c3cccc4c(N)n[nH]c34)cc2)c1
